From patent US8455525B2, “Selective androgen receptor modulators” (Radius Health, Inc., priority 2008, dated 2013)
Like-named read-outs stand apart in the source and are kept apart here.

Molecular target: T1, androgen receptor (AR) (Rattus norvegicus, UniProt P15207)
T1 construct: purchased Invitrogen, Madison, Wis
T1 sequence (P15207 651-902 limits assumed): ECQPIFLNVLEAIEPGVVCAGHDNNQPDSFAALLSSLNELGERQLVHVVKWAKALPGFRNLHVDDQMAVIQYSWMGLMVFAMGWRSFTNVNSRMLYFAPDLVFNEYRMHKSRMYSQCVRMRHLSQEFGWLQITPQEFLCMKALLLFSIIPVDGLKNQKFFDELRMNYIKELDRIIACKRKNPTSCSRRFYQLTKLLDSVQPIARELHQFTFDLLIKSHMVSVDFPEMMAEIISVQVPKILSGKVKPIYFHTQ
Experiment: androgen receptor binding assay (fluorescence polarization, Fluormone AL Green competition)
Method: The assay was performed as specified by the manufacturer (Invitrogen, Madison, Wis.). Briefly, 1 μl of 10 mM compound was added to 500 μl of AR screening buffer in a 1.5 ml eppendorf tube to make a 2×10^−5M stock. 10-fold serial dilutions of the test compounds were prepared ranging in concentration from 10^−5M to 10^−12M. Each dilution was added in triplicate to a black 384-microtiter plate. The test compounds will be diluted 2-fold in the final reaction. 2×AR-Fluormone™ complex was prepared with 2 nM Flourmone AL Green™ and 30 nM AR. 25 μl of 2× complex was aliquoted to each reaction well, such that the final reaction volume was 50 μl per well. Plate was sealed with a foil cover and incubated in the dark at room temperature for 4 h. Polarization values for each well were measured. The polarization values were plotted against the concentration of the test compound. […] As a control, a competition curve for R1881 (methyltrienolone) was performed for each assay. Curve Fitting was performed using GraphPad Prism® software from GraphPad™ Software Inc. Binding data are reported as a single determination if the experiment was run once only and as the average of experiments if the binding experiment was performed two or more times with that compound.
Where multiple data points have been taken, the value reported is the average of the multiple determinations.

[1] = single determination or average of multiple determinations, read-out: Binding IC50 (AR-Binding Affinity)

For `Cc1c(N[C@@H](c2nnc(-c3ccc(O)c(F)c3)o2)[C@H](C)O)ccc(C#N)c1Cl` [Example 29, 2-chloro-4-((1R,2S)-1-(5-(3-fluoro-4-hydroxyphenyl)-1,3,4-oxadiazol-2-yl)-2-hydroxypropylamino)-3-methylbenzonitrile], the IC50 was 0.03 nM.
For `Cc1c(N[C@@H](c2nnc(-c3ccc(Cl)cc3)o2)[C@H](C)O)ccc(C#N)c1Cl` [Example 4, 2-chloro-4-((1R,2S)-1-(5-(4-chlorophenyl)-1,3,4-oxadiazol-2-yl)-2-hydroxypropylamino)-3-methylbenzonitrile], the IC50 was 11 nM.
`C[C@H](O)[C@@H](Nc1ccc(C#N)c(C(F)(F)F)c1)c1nnc(-c2ccc(C#N)cc2)o1` [Example 45, 4-((1R,2S)-1-(5-(4-Cyanophenyl)-1,3,4-oxadiazol-2-yl)-2-hydroxypropylamino)-2-(trifluoromethyl)benzonitrile] showed an IC50 of 470 nM.
`Cc1c(N[C@@H](c2nnc(-c3ccc(C#N)cc3)o2)[C@H](C)O)ccc(C#N)c1Cl` [Example 22, 2-chloro-4-((1R,2S)-1-(5-(4-cyanophenyl)-1,3,4-oxadiazol-2-yl)-2-hydroxypropylamino)-3-methylbenzonitrile] was tested, and the IC50 was 2 nM.
For `C[C@H](O)[C@@H](Nc1ccc(C#N)c(C(F)(F)F)c1)c1nnc(-c2ccccc2)o1` [Example 16, 4-((1R,2S)-2-hydroxy-1-(5-phenyl-1,3,4-oxadiazol-2-yl)propylamino)-2-(trifluoromethyl)benzonitrile], the IC50 was 35 nM.
`Cc1c(N[C@@H](c2nnc(-c3cccc(Cl)c3)o2)[C@H](C)O)ccc(C#N)c1Cl` [Example 21, 2-chloro-4-((1R,2S)-1-(5-(3-chlorophenyl)-1,3,4-oxadiazol-2-yl)-2-hydroxypropylamino)-3-methylbenzonitrile] showed an IC50 of 3 nM.
With `CC(=O)Nc1ccc(-c2nnc([C@H](Nc3ccc(C#N)c(Cl)c3C)[C@@H](C)O)o2)cc1` [Example 70, N-(4-(5-((1R,2R)-1-(3-Chloro-4-cyano-2-methylphenylamino)-2-hydroxypropyl)-1,3,4-oxadiazol-2-yl)phenyl)acetamide] the IC50 was 4 nM.
In the case of `Cc1c(N[C@@H](c2nnc(-c3ccccc3)s2)[C@H](C)O)ccc(C#N)c1Cl` [Example 27, 2-chloro-4-((1R,2S)-2-hydroxy-1-(5-phenyl-1,3,4-thiadiazol-2-yl)propylamino)-3-methylbenzonitrile], the IC50 is reported as 10 nM.
With `Cc1c(N[C@@H](c2nnc(-c3ccc(Cl)cc3)o2)C(C)(C)O)ccc(C#N)c1Cl` [Example 15, (R)-2-chloro-4-(1-(5-(4-chlorophenyl)-1,3,4-oxadiazol-2-yl)-2-hydroxy-2-methylpropylamino)-3-methylbenzonitrile] the IC50 was 0.5 nM.
For `C[C@H](O)[C@@H](Nc1ccc(C#N)c2sccc12)c1nnc(-c2ccc(C#N)cc2)o1` [Example 60, 4-((1R,2S)-1-(5-(4-cyanophenyl)-1,3,4-oxadiazol-2-yl)-2-hydroxypropylamino)benzo[b]thiophene-7-carbonitrile], the IC50 [1] was 8 nM.
`CCc1c(N[C@@H](c2nnc(-c3ccc(C#N)cc3)o2)[C@@H](C)O)ccc(C#N)c1Cl` [Example 54, 2-Chloro-4-((1R,2R)-1-(5-(4-cyanophenyl)-1,3,4-oxadiazol-2-yl)-2-hydroxypropylamino)-3-ethylbenzonitrile] gave an IC50 of 1 nM.
In the case of `C[C@H](O)[C@@H](Nc1ccc(C#N)c(Cl)c1)c1nnc(-c2ccccc2)o1` [Example 12, 2-chloro-4-((1R,2S)-2-hydroxy-1-(5-phenyl-1,3,4-oxadiazol-2-yl)propylamino)benzonitrile], the IC50 [1] is reported as 300 nM.
With `Cc1c(N[C@@H](c2nnc(-c3ccc(O)cc3)o2)[C@@H](C)O)ccc(C#N)c1Cl` [Example 10, 2-chloro-4-((1R,2R)-2-hydroxy-1-(5-(4-hydroxyphenyl)-1,3,4-oxadiazol-2-yl)propylamino)-3-methylbenzonitrile] the IC50 was 15 nM.
Work on `Cc1c(N[C@@H](c2nnc(-c3ccc(F)c(O)c3)o2)[C@@H](C)O)ccc(C#N)c1Cl` [Example 41, 2-Chloro-4-((1R,2R)-1-(5-(4-fluoro-3-hydroxyphenyl)-1,3,4-oxadiazol-2-yl)-2-hydroxypropylamino)-3-methylbenzonitrile] yielded an IC50 of 0.02 nM.
For `Cc1c(N[C@@H](c2nnc(-c3ccc(C(F)(F)F)cc3)o2)[C@H](C)O)ccc(C#N)c1Cl` [Example 68, 2-chloro-4-((1R,2S)-2-hydroxy-1-(5-(4-(trifluoromethyl)phenyl)-1,3,4-oxadiazol-2-yl)propylamino)-3-methylbenzonitrile], the IC50 was 12 nM.
With `CCc1c(N[C@@H](c2nnc(-c3ccc(C#N)cc3)o2)[C@H](C)O)ccc(C#N)c1Cl` [Example 47, 2-Chloro-4-((1R,2S)-1-(5-(4-cyanophenyl)-1,3,4-oxadiazol-2-yl)-2-hydroxypropylamino)-3-ethylbenzonitrile] the IC50 was 1 nM.
Compound `Cc1c(N[C@@H](c2nnc(-c3ccc(F)c(F)c3)o2)[C@@H](C)O)ccc(C#N)c1Cl` [Example 39, 2-Chloro-4-((1R,2R)-1-(5-(3,4-difluorophenyl)-1,3,4-oxadiazol-2-yl)-2-hydroxypropylamino)-3-methylbenzonitrile] has an IC50 of 0.1 nM.
`Cc1c(N[C@@H](c2nnc(-c3ccc(Cl)cc3)o2)[C@@H](C)O)ccc(C#N)c1Cl` [Example 20, 2-Chloro-4-((1R,2R)-1-(5-(4-chlorophenyl)-1,3,4-oxadiazol-2-yl)-2-hydroxypropylamino)-3-methylbenzonitrile] was tested, and the IC50 was 15 nM.
In the case of `Cc1c(N[C@@H](c2nnc(-c3cccc(F)c3)o2)[C@H](C)O)ccc(C#N)c1Cl` [Example 81, 2-chloro-4-((1R,2S)-1-(5-(3-fluorophenyl)-1,3,4-oxadiazol-2-yl)-2-hydroxypropylamino)-3-methylbenzonitrile], the IC50 is reported as 2 nM.
For `Cc1c(N[C@@H](c2nnc(-c3ccc(I)cc3)o2)[C@H](C)O)ccc(C#N)c1Cl` [Example 57, 2-Chloro-4-((1R,2S)-2-hydroxy-1-(5-(4-iodophenyl)-1,3,4-oxadiazol-2-yl)propylamino)-3-methylbenzonitrile], the IC50 was 11 nM.
In the case of `Cc1c(N[C@@H](c2nnc(-c3ccccc3)s2)[C@@H](C)O)ccc(C#N)c1Cl` [Example 26, 2-chloro-4-((1R,2R)-2-hydroxy-1-(5-phenyl-1,3,4-thiadiazol-2-yl)propylamino)-3-methylbenzonitrile], the IC50 is reported as 10 nM.
In the case of `C[C@@H](O)[C@@H](Nc1ccc(C#N)c(C(F)(F)F)c1)c1nnc(-c2ccc(S(C)(=O)=O)cc2)o1` [Example 59, 4-((1R,2R)-2-hydroxy-1-(5-(4-(methylsulfonyl)phenyl)-1,3,4-oxadiazol-2-yl)propylamino)-2-(trifluoromethyl)benzonitrile], the IC50 is reported as greater than 1000 nM.
Work on `COc1cccc(-c2nnc([C@H](Nc3ccc(C#N)c(Cl)c3C)[C@H](C)O)o2)c1` [Example 6, 2-chloro-4-((1R,2S)-2-hydroxy-1-(5-(3-methoxyphenyl)-1,3,4-oxadiazol-2-yl)propylamino)-3-methylbenzonitrile] yielded an IC50 of 16 nM.
`Cc1c(NC(c2nnc(-c3ccccc3)o2)C(O)c2ccccc2)ccc(C#N)c1Cl` (racemic) [Example 38, DL-Threo-2-chloro-4-(2-hydroxy-2-phenyl-1-(5-phenyl-1,3,4-oxadiazol-2-yl)ethylamino)-3-methylbenzonitrile] was tested, and the IC50 was 60 nM.
`C[C@@H](O)[C@@H](Nc1ccc(C#N)c(C(F)(F)F)c1)c1nnc(-c2ccc(C#N)cc2)o1` [Example 44, 4-((1R,2R)-1-(5-(4-Cyanophenyl)-1,3,4-oxadiazol-2-yl)-2-hydroxypropylamino)-2-(trifluoro-methyl)benzonitrile] was tested, and the IC50 was 5 nM.
`Cc1c(N[C@@H](c2nnc(-c3ccc(O)cc3)o2)[C@H](C)O)ccc(C#N)c1Cl` [Example 8, 2-chloro-4-((1R,2S)-2-hydroxy-1-(5-(4-hydroxyphenyl)-1,3,4-oxadiazol-2-yl)propylamino)-3-methylbenzonitrile] showed an IC50 of 15 nM.
`C[C@@H](O)[C@@H](Nc1ccc(C#N)c(Cl)c1)c1nnc(-c2ccc(C#N)cc2)o1` [Example 46, 2-Chloro-4-((1R,2R)-1-(5-(4-cyanophenyl)-1,3,4-oxadiazol-2-yl)-2-hydroxypropylamino)-benzonitrile] was tested, and the IC50 was 6 nM.
`C[C@H](O)[C@@H](Nc1ccc(C#N)c2ccccc12)c1nnc(-c2ccccc2)o1` [Example 13, 4-((1R,2S)-2-hydroxy-1-(5-phenyl-1,3,4-oxadiazol-2-yl)propylamino)-1-naphthonitrile] showed an IC50 of 5 nM.
`C[C@@H](O)[C@@H](Nc1ccc(C#N)c2sccc12)c1nnc(-c2ccccc2)o1` [Example 65, 4-((1R,2R)-2-hydroxy-1-(5-phenyl-1,3,4-oxadiazol-2-yl)propylamino)benzo[b]thiophene-7-carbonitrile] showed an IC50 of 1 nM.
For `Cc1c(N[C@@H](c2nnc(-c3ccc(F)cc3)s2)[C@@H](C)O)ccc(C#N)c1Cl` [Example 28, 2-chloro-4-((1R,2R)-1-(5-(4-fluorophenyl)-1,3,4-thiadiazol-2-yl)-2-hydroxypropylamino)-3-methylbenzonitrile], the IC50 was 16 nM.
